{"source": "patent US20260285850A1", "about": "“SUBSTITUTED OXAZOLIDINONES AND IMIDAZOLINONES AS HERBICIDES” (FMC CORPORATION, priority 2023, published 2026)", "format_in_all_cases": "in vivo", "key": {"[1]": {"system": "galium (catchweed bedstraw, Galium aparine)", "assay": "Test A postemergence application, visual injury rating 0-100", "how_it_was_run": "(§1)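 Grow plants in loam soil blended with sand. Apply formulated compound (non-phytotoxic solvent, surfactant) as a directed soil spray before emergence, or to plants at the one- to two-leaf stage after emergence. Hold in greenhouse 10 days, then rate injury visually versus untreated controls on a 0-100 scale.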"}, "[2]": {"system": "green foxtail (Setaria viridis)", "assay": "Test A postemergence application, visual injury rating 0-100", "how_it_was_run": "as §1"}, "[3]": {"system": "blackgrass (Alopecurus myosuroides)", "assay": "Test A postemergence application, visual injury rating 0-100", "how_it_was_run": "as §1"}, "[4]": {"system": "ragweed (common ragweed, Ambrosia artemisiifolia)", "assay": "Test A postemergence application, visual injury rating 0-100", "how_it_was_run": "as §1"}, "[5]": {"system": "corn (Zea mays)", "assay": "Test A postemergence application, visual injury rating 0-100", "how_it_was_run": "as §1"}, "[6]": {"system": "oat, wild (wild oat, Avena fatua)", "assay": "Test A postemergence application, visual injury rating 0-100", "how_it_was_run": "as §1"}, "[7]": {"system": "wheat (Triticum aestivum)", "assay": "Test A postemergence application, visual injury rating 0-100", "how_it_was_run": "as §1"}, "[8]": {"system": "kochia (Bassia scoparia)", "assay": "Test A postemergence application, visual injury rating 0-100", "how_it_was_run": "as §1"}, "[9]": {"system": "soybean (Glycine max)", "assay": "Test A postemergence application, visual injury rating 0-100", "how_it_was_run": "as §1"}, "[10]": {"system": "palmer (palmer amaranth, palmer pigweed, Amaranthus palmeri)", "assay": "Test A postemergence application, visual injury rating 0-100", "how_it_was_run": "as §1"}, "[11]": {"system": "barnyardgrass (Echinochloa crus-galli)", "assay": "Test A postemergence application, visual injury rating 0-100", "how_it_was_run": "as §1"}, "[12]": {"system": "horseweed (Erigeron canadensis)", "assay": "Test A postemergence application, visual injury rating 0-100", "how_it_was_run": "as §1"}, "[13]": {"system": "ryegrass, Italian (italian ryegrass, Lolium multiflorum)", "assay": "Test A postemergence application, visual injury rating 0-100", "how_it_was_run": "as §1"}, "[14]": {"system": "sedge, umbrella (small-flower umbrella sedge, Cyperus difformis)", "assay": "Test B flooded paddy test, visual plant response rating 0-100", "conditions": "250 g ai/ha, Flood, applied to paddy water, evaluated after 13 days", "how_it_was_run": "(§2)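 Greenhouse, 13 d. Seedlings at 2-leaf stage, pots flooded to 3 cm, compound delivered into floodwater, water level held constant. Evaluated visually relative to controls.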"}, "[15]": {"system": "rice (Oryza sativa)", "assay": "Test B flooded paddy test, visual plant response rating 0-100", "conditions": "250 g ai/ha, Flood, applied to paddy water, evaluated after 13 days", "how_it_was_run": "as §2"}, "[16]": {"system": "ducksalad (Heteranthera limosa)", "assay": "Test B flooded paddy test, visual plant response rating 0-100", "conditions": "250 g ai/ha, Flood, applied to paddy water, evaluated after 13 days", "how_it_was_run": "as §2"}, "[17]": {"system": "barnyardgrass (Echinochloa crusgalli)", "assay": "Test B flooded paddy test, visual plant response rating 0-100", "conditions": "250 g ai/ha, Flood, applied to paddy water, evaluated after 13 days", "how_it_was_run": "as §2"}, "[18]": {"system": "green foxtail (Setaria viridis)", "assay": "Test A preemergence soil spray, visual injury rating 0-100", "conditions": "10 days", "how_it_was_run": "as §1"}, "[19]": {"system": "blackgrass (Alopecurus myosuroides)", "assay": "Test A preemergence soil spray, visual injury rating 0-100", "conditions": "10 days", "how_it_was_run": "as §1"}, "[20]": {"system": "ragweed (common ragweed, Ambrosia artemisiifolia)", "assay": "Test A preemergence soil spray, visual injury rating 0-100", "conditions": "10 days", "how_it_was_run": "as §1"}, "[21]": {"system": "corn (Zea mays)", "assay": "Test A preemergence soil spray, visual injury rating 0-100", "conditions": "10 days", "how_it_was_run": "as §1"}, "[22]": {"system": "oat, wild (wild oat, Avena fatua)", "assay": "Test A preemergence soil spray, visual injury rating 0-100", "conditions": "10 days", "how_it_was_run": "as §1"}, "[23]": {"system": "wheat (Triticum aestivum)", "assay": "Test A preemergence soil spray, visual injury rating 0-100", "conditions": "10 days", "how_it_was_run": "as §1"}, "[24]": {"system": "kochia (Bassia scoparia)", "assay": "Test A preemergence soil spray, visual injury rating 0-100", "conditions": "10 days", "how_it_was_run": "as §1"}, "[25]": {"system": "soybean (Glycine max)", "assay": "Test A preemergence soil spray, visual injury rating 0-100", "conditions": "10 days", "how_it_was_run": "as §1"}, "[26]": {"system": "palmer (palmer amaranth, palmer pigweed, Amaranthus palmeri)", "assay": "Test A preemergence soil spray, visual injury rating 0-100", "conditions": "10 days", "how_it_was_run": "as §1"}, "[27]": {"system": "barnyardgrass (Echinochloa crus-galli)", "assay": "Test A preemergence soil spray, visual injury rating 0-100", "conditions": "10 days", "how_it_was_run": "as §1"}, "[28]": {"system": "ryegrass, Italian (italian ryegrass, Lolium multiflorum)", "assay": "Test A preemergence soil spray, visual injury rating 0-100", "conditions": "10 days", "how_it_was_run": "as §1"}, "[29]": {"conditions": "62 g ai/ha, postemergence, 10 days, 0 = no effect, 100 = complete control"}, "[30]": {"conditions": "Postemergence, 16 g ai/ha, greenhouse 10 days, 0 no effect, 100 complete control"}, "[31]": {"conditions": "62 g ai/ha, 0 = no effect, 100 = complete control"}, "[32]": {"conditions": "125 g ai/ha, 0 = no effect, 100 = complete control"}}, "data": [{"smiles": "CC(C)COC(=O)C1=CCC(NC(=O)C2(C)CN(c3cc(F)cc(F)c3)C(=O)O2)C1", "note": "(centres unmarked) [Compound 98]", "values": [{"measurement": "Galium plant response rating (0-100)", "setting": "[1]; [29]", "value": 90}, {"measurement": "Galium plant response rating (0 to 100 scale)", "setting": "[1]; [30]", "value": 80}, {"measurement": "Foxtail, Green plant response rating (0-100)", "setting": "[2]; [29]", "value": 90}, {"measurement": "Foxtail, Green plant response rating (0 to 100 scale)", "setting": "[2]; [30]", "value": 80}, {"measurement": "Blackgrass plant response rating (0-100)", "setting": "[3]; [29]", "value": 90}, {"measurement": "Blackgrass plant response rating (0 to 100 scale)", "setting": "[3]; [30]", "value": 80}, {"measurement": "Ragweed plant response rating (0-100)", "setting": "[4]; [29]", "value": 60}, {"measurement": "Ragweed plant response rating (0 to 100 scale)", "setting": "[4]; [30]", "value": 50}, {"measurement": "Corn plant response rating (0-100)", "setting": "[5]; [29]", "value": 100}, {"measurement": "Corn plant response rating (0 to 100 scale)", "setting": "[5]; [30]", "value": 90}, {"measurement": "Oat, Wild plant response rating (0-100)", "setting": "[6]; [29]", "value": 100}, {"measurement": "Oat, Wild plant response rating (0 to 100 scale)", "setting": "[6]; [30]", "value": 60}, {"measurement": "Wheat plant response rating (0-100)", "setting": "[7]; [29]", "value": 80}, {"measurement": "Wheat plant response rating (0 to 100 scale)", "setting": "[7]; [30]", "value": 70}, {"measurement": "Kochia plant response rating (0-100)", "setting": "[8]; [29]", "value": 90}, {"measurement": "Kochia plant response rating (0 to 100 scale)", "setting": "[8]; [30]", "value": 80}, {"measurement": "Soybean plant response rating (0-100)", "setting": "[9]; [29]", "value": 60}, {"measurement": "Soybean plant response rating (0 to 100 scale)", "setting": "[9]; [30]", "value": 50}, {"measurement": "Pigweed, Palmer plant response rating (0-100)", "setting": "[10]; [29]", "value": 90}, {"measurement": "Pigweed, Palmer plant response rating (0 to 100 scale)", "setting": "[10]; [30]", "value": 70}, {"measurement": "Barnyardgrass plant response rating (0-100)", "setting": "[11]; [29]", "value": 100}, {"measurement": "Barnyardgrass plant response rating (0 to 100 scale)", "setting": "[11]; [30]", "value": 100}, {"measurement": "Horseweed plant response rating (0-100)", "setting": "[12]; [29]", "value": 60}, {"measurement": "Horseweed plant response rating (0 to 100 scale)", "setting": "[12]; [30]", "value": 20}, {"measurement": "Ryegrass, Italian plant response rating (0-100)", "setting": "[13]; [29]", "value": 90}, {"measurement": "Ryegrass, Italian plant response rating (0 to 100 scale)", "setting": "[13]; [30]", "value": 80}, {"measurement": "Plant response rating, Sedge, Umbrella (0 to 100 scale, 0 is no effect and 100 is complete control)", "setting": "[14]", "value": 98}, {"measurement": "Plant response rating, Rice (0 to 100 scale, 0 is no effect and 100 is complete control)", "setting": "[15]", "value": 70}, {"measurement": "Plant response rating, Ducksalad (0 to 100 scale, 0 is no effect and 100 is complete control)", "setting": "[16]", "value": 75}, {"measurement": "Plant response rating, Barnyardgrass (0 to 100 scale, 0 is no effect and 100 is complete control)", "setting": "[17]", "value": 65}, {"measurement": "Foxtail, Green plant response rating", "setting": "[18]; 16 g ai/ha, 0 to 100 scale", "value": 70}, {"measurement": "Foxtail, Green plant response rating (0-100)", "setting": "[18]; [31]", "value": 100}, {"measurement": "Blackgrass plant response rating", "setting": "[19]; 16 g ai/ha, 0 to 100 scale", "value": 10}, {"measurement": "Blackgrass plant response rating (0-100)", "setting": "[19]; [31]", "value": 50}, {"measurement": "Blackgrass plant response rating (0 to 100 scale)", "setting": "[19]; [32]", "value": 0}, {"measurement": "Ragweed plant response rating", "setting": "[20]; 16 g ai/ha, 0 to 100 scale", "value": 0}, {"measurement": "Ragweed plant response rating (0-100)", "setting": "[20]; [31]", "value": 0}, {"measurement": "Ragweed plant response rating (0 to 100 scale)", "setting": "[20]; [32]", "value": 50}, {"measurement": "Corn plant response rating", "setting": "[21]; 16 g ai/ha, 0 to 100 scale", "value": 0}, {"measurement": "Corn plant response rating (0-100)", "setting": "[21]; [31]", "value": 90}, {"measurement": "Corn plant response rating (0 to 100 scale)", "setting": "[21]; [32]", "value": 20}, {"measurement": "Oat, Wild plant response rating", "setting": "[22]; 16 g ai/ha, 0 to 100 scale", "value": 0}, {"measurement": "Oat, Wild plant response rating (0-100)", "setting": "[22]; [31]", "value": 40}, {"measurement": "Oat, Wild plant response rating (0 to 100 scale)", "setting": "[22]; [32]", "value": 20}, {"measurement": "Wheat plant response rating", "setting": "[23]; 16 g ai/ha, 0 to 100 scale", "value": 30}, {"measurement": "Wheat plant response rating (0-100)", "setting": "[23]; [31]", "value": 90}, {"measurement": "Wheat plant response rating (0 to 100 scale)", "setting": "[23]; [32]", "value": 70}, {"measurement": "Kochia plant response rating", "setting": "[24]; 16 g ai/ha, 0 to 100 scale", "value": 80}, {"measurement": "Kochia plant response rating (0-100)", "setting": "[24]; [31]", "value": 90}, {"measurement": "Kochia plant response rating (0 to 100 scale)", "setting": "[24]; [32]", "value": 90}, {"measurement": "Soybean plant response rating", "setting": "[25]; 16 g ai/ha, 0 to 100 scale", "value": 0}, {"measurement": "Soybean plant response rating (0-100)", "setting": "[25]; [31]", "value": 50}, {"measurement": "Soybean plant response rating (0 to 100 scale)", "setting": "[25]; [32]", "value": 10}, {"measurement": "Pigweed, Palmer plant response rating", "setting": "[26]; 16 g ai/ha, 0 to 100 scale", "value": 10}, {"measurement": "Pigweed, Palmer plant response rating (0-100)", "setting": "[26]; [31]", "value": 50}, {"measurement": "Amaranth, Palmer plant response rating (0 to 100 scale)", "setting": "[26]; [32]", "value": 100}, {"measurement": "Barnyardgrass plant response rating", "setting": "[27]; 16 g ai/ha, 0 to 100 scale", "value": 10}, {"measurement": "Barnyardgrass plant response rating (0-100)", "setting": "[27]; [31]", "value": 90}, {"measurement": "Barnyardgrass plant response rating (0 to 100 scale)", "setting": "[27]; [32]", "value": 70}, {"measurement": "Ryegrass, Italian plant response rating", "setting": "[28]; 16 g ai/ha, 0 to 100 scale", "value": 0}, {"measurement": "Ryegrass, Italian plant response rating (0-100)", "setting": "[28]; [31]", "value": 80}, {"measurement": "Ryegrass, Italian plant response rating (0 to 100 scale)", "setting": "[28]; [32]", "value": 80}]}]}
